Test results: patent US20170190671A1, “BIS(ARYL)CATECHOL DERIVATIVES AS HERBICIDES” (E I DU PONT DE NEMOURS AND COMPANY, priority 2014, published 2017)

Experiments:
Assay type in all cases: in vivo
[1] = test system: oilseed rape (Brassica napus); assay: Test C preemergence; conditions: Brassica napus, pre-emergence, scale 0 to 100, read-out: Plant response rating, Oilseed Rape
From the text: (§1) Seeds of plant species selected from blackgrass (Alopecurus myosuroides), Italian ryegrass (Lolium multiflorum), winter wheat (Triticum aestivum), galium (catchweed bedstraw, Galium aparine), corn (Zea mays), large (Lg) crabgrass (Digitaria sanguinalis), giant foxtail (Setaria faberii), johnsongrass (Sorghum halepense), lambsquarters (Chenopodium album), morningglory (Ipomoea coccinea), yellow nutsedge (Cyperus esculentus), pigweed (Amaranthus retroflexus), ragweed (common ragweed, Ambrosia elatior), soybean (Glycine max), barnyardgrass (Echinochloa crus-galli), oilseed rape (Brassica napus), waterhemp (common waterhemp, Amaranthus rudis), and velvetleaf (Abutilon theophrasti) were planted into a blend of loam soil and sand and treated preemergence with test chemicals formulated in a non-phytotoxic solvent mixture which included a surfactant.
(§2) At the same time, plants selected from these crop and weed species and also chickweed (common chickweed, Stellaria media), kochia (Kochia scoparia), and wild oat (Avena fatua), were planted in pots containing Redi-Earth® planting medium (Scotts Company, 14111 Scottslawn Road, Marysville, Ohio 43041) comprising spaghnum peat moss, vermiculite, wetting agent and starter nutrients and treated with postemergence applications of test chemicals formulated in the same manner. Plants ranged in height from 2 to 18 cm (1- to 4-leaf stage) for postemergence treatments. Treated plants and controls were maintained in a greenhouse for 13 to 15 days, after which time all species were compared to controls and visually evaluated. Plant response ratings, summarized in Table C, are based on a scale of 0 to 100 where 0 is no effect and 100 is complete control. A dash (-) response means no test result.

[2] = test system: large (Lg) crabgrass (Digitaria sanguinalis); assay: Test C preemergence; conditions: Digitaria sanguinalis, pre-emergence, 336 h, scale 0 to 100, read-out: Plant response rating, Crabgrass, Large
From the text: as §1, §2

[3] = test system: winter wheat (Triticum aestivum); assay: Test C preemergence; conditions: Triticum aestivum, pre-emergence, 336 h, scale 0 to 100, read-out: Plant response rating, Wheat
From the text: as §1, §2

[4] = test system: giant foxtail (Setaria faberii); assay: Test C preemergence; conditions: Setaria faberi, pre-emergence, 336 h, scale 0 to 100, read-out: Plant response rating, Foxtail, Giant
From the text: as §1, §2

[5] = test system: Italian ryegrass (Lolium multiflorum); assay: Test C postemergence; conditions: Lolium multiflorum, post-emergence, 336 h, Postemergence, scale 0 to 100, read-out: Plant response rating, Ryegrass, Italian
Procedure, shortened: (§3)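 Treatment is preemergence to seeds in a loam and sand soil, or postemergence to plants 2 to 18 cm high in a peat moss-based medium. The compound is delivered in a non-phytotoxic solvent mixture including surfactant. Effects are judged by eye 13 to 15 days later on a 0 to 100 scale.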

[6] = test system: chickweed (common chickweed, Stellaria media); assay: Test C postemergence; conditions: Stellaria media, post-emergence, Postemergence, scale 0 to 100, read-out: Plant response rating, Chickweed
Procedure, shortened: as §3

[7] = test system: ragweed (common ragweed, Ambrosia elatior); assay: Test C postemergence; conditions: Ambrosia artemisiifolia, post-emergence, 336 h, Postemergence, scale 0 to 100, read-out: Plant response rating, Ragweed
Procedure, shortened: as §3

[8] = test system: barnyardgrass (Echinochloa crus-galli); assay: Test C postemergence; conditions: Echinochloa crus-galli, post-emergence, Postemergence, scale 0 to 100, read-out: Plant response rating, Barnyardgrass
Procedure, shortened: as §3

[9] = test system: pigweed (Amaranthus retroflexus); assay: Test C postemergence; conditions: Amaranthus retroflexus, post-emergence, 336 h, Postemergence, scale 0 to 100, read-out: Plant response rating, Pigweed
Procedure, shortened: as §3

[10] = test system: oilseed rape (Brassica napus); assay: Test C postemergence; conditions: Brassica napus, post-emergence, Postemergence, scale 0 to 100, read-out: Plant response rating, Oilseed Rape
Procedure, shortened: as §3

[11] = test system: velvetleaf (Abutilon theophrasti); assay: Test C postemergence; conditions: Abutilon theophrasti, post-emergence, Postemergence, scale 0 to 100, read-out: Plant response rating, Velvetleaf
Procedure, shortened: as §3

[12] = test system: blackgrass (Alopecurus myosuroides); assay: Test C postemergence; conditions: Alopecurus myosuroides, post-emergence, 336 h, Postemergence, scale 0 to 100, read-out: Plant response rating, Blackgrass
Procedure, shortened: as §3

corn (Zea mays) = assay: Test C postemergence; conditions: Zea mays, post-emergence, 336 h, Postemergence, scale 0 to 100
Procedure, shortened: as §3

[13] = test system: johnsongrass (Sorghum halepense); assay: Test C postemergence; conditions: Sorghum halepense, post-emergence, 336 h, Postemergence, scale 0 to 100, read-out: Plant response rating, Johnsongrass
Procedure, shortened: as §3

[14] = test system: large (Lg) crabgrass (Digitaria sanguinalis); assay: Test C postemergence; conditions: Digitaria sanguinalis, post-emergence, 336 h, Postemergence, scale 0 to 100, read-out: Plant response rating, Crabgrass, Large
Procedure, shortened: as §3

[15] = test system: winter wheat (Triticum aestivum); assay: Test C postemergence; conditions: Triticum aestivum, post-emergence, 336 h, Postemergence, scale 0 to 100, read-out: Plant response rating, Wheat
Procedure, shortened: as §3

[16] = test system: lambsquarters (Chenopodium album); assay: Test C postemergence; conditions: Chenopodium album, post-emergence, 336 h, Postemergence, scale 0 to 100, read-out: Plant response rating, Lambsquarters
Procedure, shortened: as §3

[17] = test system: giant foxtail (Setaria faberii); assay: Test C postemergence; conditions: Setaria faberi, post-emergence, 336 h, Postemergence, scale 0 to 100, read-out: Plant response rating, Foxtail, Giant
Procedure, shortened: as §3

[18] = test system: morningglory (Ipomoea coccinea); assay: Test C postemergence; conditions: Ipomoea, post-emergence, 336 h, Postemergence, scale 0 to 100, read-out: Plant response rating, Morningglory
Procedure, shortened: as §3

[19] = test system: yellow nutsedge (Cyperus esculentus); assay: Test C postemergence; conditions: Cyperus, post-emergence, 336 h, Postemergence, scale 0 to 100, read-out: Plant response rating, Nutsedge, Yellow
Procedure, shortened: as §3

soybean (Glycine max) = assay: Test C postemergence; conditions: Glycine max, post-emergence, Postemergence, scale 0 to 100, read-out: Plant response rating, Soybean
Procedure, shortened: as §3

[20] = test system: galium (catchweed bedstraw, Galium aparine); assay: Test C postemergence; conditions: Galium, post-emergence, 336 h, Postemergence, scale 0 to 100, read-out: Plant response rating, Galium
Procedure, shortened: as §3

With `N#Cc1cccc(Oc2ncc(Cl)cn2)c1Oc1ncc(Br)cn1` [Compound 4, 2-[(5-bromo-2-pyrimidinyl)oxy]-3-[(5-chloro-2-pyrimidinyl)oxy]benzonitrile] the plant injury at 31 g/ha ([1]; 31 g ai/ha, preemergence) was 75%, the plant injury at 62 g/ha ([1]; 62 g ai/ha, preemergence) was 90% and the plant injury at 125 g/ha ([1]; 125 g ai/ha, preemergence) was 100%. It also gave a plant injury at 16 g/ha ([1]; Preemergence, 16 g ai/ha) of 15%, a pest or weed control at 31 g/ha ([2]; 31 g ai/ha, preemergence) of 100% and a pest or weed control at 62 g/ha ([2]; 62 g ai/ha, preemergence) of 100%. It also gave a pest or weed control at 125 g/ha ([2]; 125 g ai/ha, preemergence) of 100%, a pest or weed control at 16 g/ha ([2]; Preemergence, 16 g ai/ha) of 75% and a plant injury at 31 g/ha ([3]; 31 g ai/ha, preemergence) of 0%. It also gave a plant injury at 62 g/ha ([3]; 62 g ai/ha, preemergence) of 0%, a plant injury at 125 g/ha ([3]; 125 g ai/ha, preemergence) of 5% and a plant injury at 16 g/ha ([3]; Preemergence, 16 g ai/ha) of 0%. For the same molecule, the pest or weed control at 31 g/ha ([4]; 31 g ai/ha, preemergence) was 98%, the pest or weed control at 62 g/ha ([4]; 62 g ai/ha, preemergence) was 100% and the pest or weed control at 125 g/ha ([4]; 125 g ai/ha, preemergence) was 100%. It also gave a pest or weed control at 16 g/ha ([4]; Preemergence, 16 g ai/ha) of 10%, a pest or weed control at 31 g/ha ([5]; 31 g ai/ha) of 0% and a pest or weed control at 62 g/ha ([5]; 62 g ai/ha) of 0%. For the same molecule, the pest or weed control at 125 g/ha ([5]; 125 g ai/ha) was 5%, the pest or weed control at 16 g/ha ([6]; 16 g ai/ha) was 20% and the pest or weed control at 31 g/ha ([6]; 31 g ai/ha) was 40%. For the same molecule, the pest or weed control at 62 g/ha ([6]; 62 g ai/ha) was 50%, the pest or weed control at 125 g/ha ([6]; 125 g ai/ha) was 80% and the pest or weed control at 31 g/ha ([7]; 31 g ai/ha) was 50%. It also gave a pest or weed control at 62 g/ha ([7]; 62 g ai/ha) of 75%, a pest or weed control at 125 g/ha ([7]; 125 g ai/ha) of 85% and a pest or weed control at 16 g/ha ([8]; 16 g ai/ha) of 5%. It also gave a pest or weed control at 31 g/ha ([8]; 31 g ai/ha) of 5%, a pest or weed control at 62 g/ha ([8]; 62 g ai/ha) of 5% and a pest or weed control at 125 g/ha ([8]; 125 g ai/ha) of 5%. For the same molecule, the pest or weed control at 31 g/ha ([9]; 31 g ai/ha) was 65%, the pest or weed control at 62 g/ha ([9]; 62 g ai/ha) was 80% and the pest or weed control at 125 g/ha ([9]; 125 g ai/ha) was 95%. The plant injury at 31 g/ha ([10]; 31 g ai/ha) was 10%, the plant injury at 62 g/ha ([10]; 62 g ai/ha) was 45% and the plant injury at 125 g/ha ([10]; 125 g ai/ha) was 60%. It also gave a pest or weed control at 31 g/ha ([11]; 31 g ai/ha) of 40%, a pest or weed control at 62 g/ha ([11]; 62 g ai/ha) of 50% and a pest or weed control at 125 g/ha ([11]; 125 g ai/ha) of 60%. The pest or weed control at 16 g/ha ([12]; 16 g ai/ha) was 0%, the pest or weed control at 31 g/ha ([12]; 31 g ai/ha) was 0% and the pest or weed control at 62 g/ha ([12]; 62 g ai/ha) was 0%. It also gave a pest or weed control at 125 g/ha ([12]; 125 g ai/ha) of 10%, a Corn plant response rating (crop injury, 0 = no effect, 100 = complete kill) at 16 g/ha (corn (Zea mays); 16 g ai/ha) of 5% and a Corn plant response rating (crop injury, 0 = no effect, 100 = complete kill) at 31 g/ha (corn (Zea mays); 31 g ai/ha) of 5%. For the same molecule, the Corn plant response rating (crop injury, 0 = no effect, 100 = complete kill) at 62 g/ha (corn (Zea mays); 62 g ai/ha) was 5%, the Corn plant response rating (crop injury, 0 = no effect, 100 = complete kill) at 125 g/ha (corn (Zea mays); 125 g ai/ha) was 10% and the pest or weed control at 16 g/ha ([13]; 16 g ai/ha) was 5%. It also gave a pest or weed control at 31 g/ha ([13]; 31 g ai/ha) of 5%, a pest or weed control at 62 g/ha ([13]; 62 g ai/ha) of 5% and a pest or weed control at 125 g/ha ([13]; 125 g ai/ha) of 5%. For the same molecule, the pest or weed control at 16 g/ha ([14]; 16 g ai/ha) was 5%, the pest or weed control at 31 g/ha ([14]; 31 g ai/ha) was 5% and the pest or weed control at 62 g/ha ([14]; 62 g ai/ha) was 5%. The pest or weed control at 125 g/ha ([14]; 125 g ai/ha) was 10%, the plant injury at 31 g/ha ([15]; 31 g ai/ha) was 0% and the plant injury at 62 g/ha ([15]; 62 g ai/ha) was 5%. The plant injury at 125 g/ha ([15]; 125 g ai/ha) was 5%, the pest or weed control at 16 g/ha ([16]; 16 g ai/ha) was 30% and the pest or weed control at 31 g/ha ([16]; 31 g ai/ha) was 70%. The pest or weed control at 62 g/ha ([16]; 62 g ai/ha) was 80%, the pest or weed control at 125 g/ha ([16]; 125 g ai/ha) was 90% and the pest or weed control at 16 g/ha ([17]; 16 g ai/ha) was 40%. It also gave a pest or weed control at 31 g/ha ([17]; 31 g ai/ha) of 40%, a pest or weed control at 62 g/ha ([17]; 62 g ai/ha) of 45% and a pest or weed control at 125 g/ha ([17]; 125 g ai/ha) of 35%. It also gave a pest or weed control at 31 g/ha ([18]; 31 g ai/ha) of 80%, a pest or weed control at 62 g/ha ([18]; 62 g ai/ha) of 85% and a pest or weed control at 125 g/ha ([18]; 125 g ai/ha) of 95%. The pest or weed control at 31 g/ha ([19]; 31 g ai/ha) was 0%, the pest or weed control at 62 g/ha ([19]; 62 g ai/ha) was 10% and the pest or weed control at 125 g/ha ([19]; 125 g ai/ha) was 10%. For the same molecule, the plant injury at 31 g/ha (soybean (Glycine max); 31 g ai/ha) was 70%, the plant injury at 62 g/ha (soybean (Glycine max); 62 g ai/ha) was 70% and the plant injury at 125 g/ha (soybean (Glycine max); 125 g ai/ha) was 70%. It also gave a pest or weed control at 16 g/ha ([20]; 16 g ai/ha) of 55%, a pest or weed control at 31 g/ha ([20]; 31 g ai/ha) of 55% and a pest or weed control at 62 g/ha ([20]; 62 g ai/ha) of 60%. For the same molecule, the pest or weed control at 125 g/ha ([20]; 125 g ai/ha) was 95%.
